Test results as given in patent US20230293801A1, “Flow Electroporator Device For Therapeutic Targeting Of Circulating Tumor Cells During Hemodialysis” (ROSEMAN UNIVERSITY OF HEALTH SCIENCES, priority 2022, published 2023).

Assays:
Format in all cases: cell-based
HeLa cells [1] = assay: Cell cycle analysis by flow cytometry and propidium iodide staining of chromosomal DNA; conditions: HeLa cells as mocked CTCs, 40 nM doxorubicin for 24 hrs
Experimental: (§1) FIGS. 6A-G show drug delivery via electroporation. […] Cell cycle analysis is performed using flow cytometry and propidium iodide staining of chromosomal DNA. […] Error bars are standard deviation of triplicate experiments. Asterisk indicates p-value≤0.01 versus untreated control. FIGS. 6D-G show increased delivery of doxorubicin into HeLa cells via electroporation. […] Data are normalized to 1 for doxorubicin fluorescence of HeLa cells incubated with 40 nM doxorubicin without electroporation. Error bars are standard deviation of triplicate experiments. Asterisk indicates p-value≤0.01 versus no electroporation.
(§2) Another utility of the flow electroporator device is drug delivery during hemodialysis. Due to the unique cancer hallmarks of CTCs, many chemotherapeutic agents can be used for their selective targeting. […] Electroporation by the flow electroporator device enhanced doxorubicin uptake by CTCs by more than 4 fold (FIG. 6D-G). An advantage of drug delivery during hemodialysis is the subsequent removal of excess chemotherapeutic agents, thereby minimizing unnecessary side effects to cancer patients.

HeLa cells [2] = assay: Doxorubicin uptake by flow cytometry of doxorubicin fluorescence, with and without the flow electroporator device; conditions: HeLa cells in EMEM, 40 nM doxorubicin, 500 ml/min, 300 V/cm, 200 V/cm, normalized to no electroporation
Experimental: as §1, §2

HeLa cells [3] = assay: Cell viability by crystal violet staining after incubation with blood plasma and A922500; conditions: blood plasma and A922500, versus blood plasma alone for 24 hrs
Experimental: (§3) FIGS. 7A-H show A922500, a DGAT1 inhibitor, reduces the viability of CTCs in blood plasma. […] Cell viability is assayed with crystal violet staining and visualized at low resolution (left column) and high resolution (right column). […] Error bars are standard deviation of triplicate experiments. Asterisk indicates p-value≤0.01 versus culturing in EMEM medium. […] Control HeLa cells cultured in EMEM medium is presented in the top panel. HeLa cells incubated with blood plasma for 24 hrs is presented in the bottom panel. […] Images are control untreated HeLa cells cultured with EMEM medium (first panel); HeLa cells cultured in EMEM medium and treated with 10 μM A922500, a small-molecule inhibitor of diacylglycerol O-acyltransferase 1 (DGAT1), for 24 hrs (second panel); HeLa cells incubated with blood plasma for 24 hrs (third panel); and HeLa cells incubated with blood plasma and 10 μM A922500 for 24 hrs (fourth panel). FIGS. 7F-H show viability of HeLa cells following incubation with blood plasma or blood plasma and A922500. Cell viability is assayed with crystal violet staining and visualized at low resolution (FIG. 7F) and high resolution (FIG. 7G). […] Error bars are standard deviation of triplicate experiments. Single asterisk indicates p-value≤0.01 versus untreated control HeLa cells cultured with EMEM. […]

HeLa cells [4] = assay: Confocal fluorescence imaging of intracellular lipid droplets in cells incubated with blood plasma; conditions: blood plasma and 10 μM A922500 for 24 hrs
Experimental: as §3

SMILES	effect on cell cycle of CTCs (HeLa cells [1])	enhancement of doxorubicin uptake by CTCs by electroporation (HeLa cells [2])	viability of CTCs in blood plasma (HeLa cells [3])	lipid droplet accumulation in CTCs incubated with blood plasma (HeLa cells [4])
COc1cccc2c1C(=O)c1c(O)c3c(c(O)c1C2=O)C[C@@](O)(C(=O)CO)C[C@@H]3O[C@H]1C[C@H](N)[C@H](O)[C@H](C)O1 [doxorubicin]	cell cycle arrest	more than 4 fold	–	–
O=C(Nc1ccccc1)Nc1ccc(-c2ccc(C(=O)[C@@H]3CCC[C@H]3C(=O)O)cc2)cc1 [A922500]	–	–	further reduced the viability	inhibited lipid droplet accumulation
